# Reference: US20230263822A1, “MODULATION OF FACTOR 11 EXPRESSION” (Ionis Pharmaceuticals, Inc., priority 2008, published 2023)
# Like-named read-outs stand apart in the source and are kept apart here. e = 2'-O-(2-methoxyethyl) (MOE); d = 2'-deoxy (DNA)
# What was measured:
# [1] = mouse, in vivo, sc, 50 mg/kg
# [2] = mouse, in vivo, sc, 50 mg/kg; remark: listed apart in the source
# [3] = rat, in vivo, sc, 50 mg/kg
# [4] = mouse, in vivo, sc, 50 mg/kg; remark: listed apart in the source
# [5] = rat, in vivo, sc, 50 mg/kg; remark: listed apart in the source
# [6] = rat, in vivo, sc, 50 mg/kg; remark: listed apart in the source
Substance,HCT [1] [%],Lymphocyte [1] [cells/μL],Neutrophil [1] [cells/μL],Platelets [1],RBC [1],WBC [1],hemoglobin [1] [g/dL],monocytes [1] [cells/μL],ALT [2] [IU/L],AST [2] [IU/L],Bilirubin [2] [mg/dL],Cholesterol [2] [mg/dL],ALT [3] [IU/L],AST [3] [IU/L],Albumin [3],Bilirubin [3] [mg/dL],BUN [4] [mg/dL],BUN [5] [mg/dL],Creatinine [5] [mg/dL],Total urine protein [5] [mg/dL],further results
"ISIS 416861: MOE gapmer, nucleobases 1275 to 1318 of SEQ ID NO: 1 (Table 8) (antisense GCGGACGGCATTGGTGCACA; MOE gapmer, wing and gap sizes not given here)",48,5119,1122,836 10^3/μL,9 10^6/μL,7 10^3/μL,14,219,38,85,0.27,133,89,154,5,0.15,23,22,39,205,Urine protein/creatinine ratio [5]: 5.1; HCT [6]: 45%; Lymphocyte [6]: 12865; Neutrophil [6]: 1813; Platelets [6]: 1008; RBC [6]: 7.7 10^6/μL; WBC [6]: 15 10^3/μL; hemoglobin [6]: 14.6 g/dL
"ISIS 416867: MOE gapmer, nucleobases 1275 to 1318 of SEQ ID NO: 1 (Table 8) (antisense ACTGGCAGCGGACGGCATTG; MOE gapmer, wing and gap sizes not given here)",47,6078,1404,1006 10^3/μL,10 10^6/μL,8 10^3/μL,14,188,45,82,0.21,144,47,126,4,0.17,20,22,70,217,Urine protein/creatinine ratio [5]: 3.1; HCT [6]: 45%; Lymphocyte [6]: 10405; Neutrophil [6]: 3044; Platelets [6]: 705; RBC [6]: 7.8 10^6/μL; WBC [6]: 14 10^3/μL; hemoglobin [6]: 14.0 g/dL
"ISIS 416860: MOE gapmer, nucleobases 1275 to 1318 of SEQ ID NO: 1 (Table 8) (antisense CGGACGGCATTGGTGCACAG; MOE gapmer, wing and gap sizes not given here)",51,4889,1291,937 10^3/μL,10 10^6/μL,7 10^3/μL,15,161,189,160,0.23,152,70,157,4,0.15,25,23,58,242,Urine protein/creatinine ratio [5]: 4.6; HCT [6]: 45%; Lymphocyte [6]: 13986; Neutrophil [6]: 1841; Platelets [6]: 669; RBC [6]: 7.8 10^6/μL; WBC [6]: 17 10^3/μL; hemoglobin [6]: 14.1 g/dL
"ISIS 413482: 5-10-5 MOE gapmer GGACGGCATTGGTGCACAGT (sugars from the 5' end e5 d10 e5, backbone and methylation of C not given here)",50,5584,1958,818 10^3/μL,10 10^6/μL,8 10^3/μL,15,275,54,77,0.24,138,59,157,4,0.14,27,23,34,157,Urine protein/creatinine ratio [5]: 4.8; HCT [6]: 40%; Lymphocyte [6]: 11430; Neutrophil [6]: 1125; Platelets [6]: 641; RBC [6]: 7.1 10^6/μL; WBC [6]: 13 10^3/μL; hemoglobin [6]: 13.2 g/dL
"ISIS 412225: 5-10-5 MOE gapmer GCAGCGGACGGCATTGGTGC (sugars from the 5' end e5 d10 e5, backbone and methylation of C not given here)",50,4969,1547,574 10^3/μL,9 10^6/μL,7 10^3/μL,15,293,40,69,0.23,128,48,108,5,0.15,23,23,58,209,Urine protein/creatinine ratio [5]: 4.0; HCT [6]: 42%; Lymphocyte [6]: 13204; Neutrophil [6]: 1499; Platelets [6]: 673; RBC [6]: 7.4 10^6/μL; WBC [6]: 15 10^3/μL; hemoglobin [6]: 13.4 g/dL
"ISIS 416852: MOE gapmer, nucleobases 1275 to 1318 of SEQ ID NO: 1 (Table 8) (antisense TGGTGCACAGTTTCTGGCAG; MOE gapmer, wing and gap sizes not given here)",49,3646,1241,903 10^3/μL,9 10^6/μL,5 10^3/μL,14,189,49,91,0.16,125,49,87,4,0.15,21,25,60,189,Urine protein/creatinine ratio [5]: 3.0; HCT [6]: 42%; Lymphocyte [6]: 11956; Neutrophil [6]: 836; Platelets [6]: 632; RBC [6]: 7.2 10^6/μL; WBC [6]: 13 10^3/μL; hemoglobin [6]: 13.4 g/dL
"ISIS 416856: MOE gapmer, nucleobases 1275 to 1318 of SEQ ID NO: 1 (Table 8) (antisense GGCATTGGTGCACAGTTTCT; MOE gapmer, wing and gap sizes not given here)",47,3622,1292,753 10^3/μL,9 10^6/μL,5 10^3/μL,14,151,130,129,0.23,109,123,222,4,0.13,21,23,48,128,Urine protein/creatinine ratio [5]: 2.7; HCT [6]: 43%; Lymphocyte [6]: 14328; Neutrophil [6]: 3280; Platelets [6]: 740; RBC [6]: 7.7 10^6/μL; WBC [6]: 19 10^3/μL; hemoglobin [6]: 14.1 g/dL
